Reference: article PMC6723352, “Exploring Structure-Activity Relationship in Tacrine-Squaramide Derivatives as Potent Cholinesterase Inhibitors” (Biomolecules, 2019)
Like-named read-outs stand apart in the source and are kept apart here.

Assays:
[1] = target: T1, human AChE (hAChE), recombinant acetylcholinesterase (Homo sapiens, UniProt P22303); experiment: hAChE inhibition, modified Ellman's method; type: biochemical; details: for times more potent than reference (hAChE): 3a vs THA, 5d vs 7-MEOTA; for SI (selectivity index for hAChE): ratio IC50(hBChE)/IC50(hAChE)
T1 construct: made in house
T1 sequence (P22303 32-614): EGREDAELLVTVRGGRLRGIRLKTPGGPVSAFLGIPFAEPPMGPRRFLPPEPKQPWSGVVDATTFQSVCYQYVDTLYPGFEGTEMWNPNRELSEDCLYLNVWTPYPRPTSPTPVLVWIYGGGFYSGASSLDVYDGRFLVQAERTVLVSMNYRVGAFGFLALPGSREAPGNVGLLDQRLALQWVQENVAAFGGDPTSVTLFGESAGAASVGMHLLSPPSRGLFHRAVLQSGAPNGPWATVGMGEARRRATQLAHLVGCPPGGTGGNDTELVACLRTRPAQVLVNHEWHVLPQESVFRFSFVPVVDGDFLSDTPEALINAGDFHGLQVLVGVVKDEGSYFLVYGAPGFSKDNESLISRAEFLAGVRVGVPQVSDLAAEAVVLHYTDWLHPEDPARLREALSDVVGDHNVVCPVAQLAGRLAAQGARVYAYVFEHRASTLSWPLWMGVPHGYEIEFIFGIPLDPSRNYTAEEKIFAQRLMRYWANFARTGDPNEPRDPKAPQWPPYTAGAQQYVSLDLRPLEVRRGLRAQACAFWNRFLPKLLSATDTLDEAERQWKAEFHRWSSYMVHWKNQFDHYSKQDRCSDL
Method: Three series of tacrine-squaramide homodimers were tested for their inhibitory potential against human AChE (hAChE) and human BChE (hBChE) enzymes using modified spectrophotometric method of Ellman et al.. THA, 6-Cl-THA and 7-MEOTA were used as reference compounds. […].
(§1) Human plasmatic butyrylcholinesterase (BChE; EC 3.1.1.8) and recombinant acetylcholinesterase (AChE; 3.1.1.7) were prepared at the Department of Toxicology and Military Pharmacy. 5,5′-dithiobis(2-nitrobenzoic acid) (Ellman’s reagent, DTNB), phosphate buffer (PB, pH 7.4), acetylthiocholine (ATC) and butyrylthiocholine (BTC), were purchased from Sigma-Aldrich, Prague, Czech Republic. For measuring purposes – polystyrene Nunc 96-well microplates with flat bottom shape (ThermoFisher Scientific, USA) were utilized.
(§2) All the assays were carried out in 0.1 M KH2PO4/K2HPO4 buffer, pH 7.4. Enzyme solutions were prepared at 2.0 units/mL in 2 mL aliquots. The assay medium (100 µL) consisted of 40 µL of 0.1 M phosphate buffer (pH 7.4), 20 µL of 0.01 M DTNB, 10 µL of the enzyme, and 20 µL of 0.01 M substrate (ATC/BTC iodide solution).
(§3) Tested compounds were preincubated for 5 min. The reaction was started by immediate addition of 20 µL of the substrate. The activity was determined by measuring the increase in absorbance at 412 for AChE/BChE at 37 °C at 2 min intervals - using a Multi-mode microplate reader Synergy 2 (Winooski, VT, USA). Each concentration was assayed in triplicate. Software GraphPad Prizm 5 (San Diego, CA, USA) was used for the statistical data evaluation.

[2] = target: human BChE (hBChE), human plasmatic butyrylcholinesterase (Homo sapiens, UniProt P06276); experiment: hBChE inhibition, modified Ellman's method; type: biochemical
human BChE (hBChE), human plasmatic butyrylcholinesterase, sequence (P06276 29-602): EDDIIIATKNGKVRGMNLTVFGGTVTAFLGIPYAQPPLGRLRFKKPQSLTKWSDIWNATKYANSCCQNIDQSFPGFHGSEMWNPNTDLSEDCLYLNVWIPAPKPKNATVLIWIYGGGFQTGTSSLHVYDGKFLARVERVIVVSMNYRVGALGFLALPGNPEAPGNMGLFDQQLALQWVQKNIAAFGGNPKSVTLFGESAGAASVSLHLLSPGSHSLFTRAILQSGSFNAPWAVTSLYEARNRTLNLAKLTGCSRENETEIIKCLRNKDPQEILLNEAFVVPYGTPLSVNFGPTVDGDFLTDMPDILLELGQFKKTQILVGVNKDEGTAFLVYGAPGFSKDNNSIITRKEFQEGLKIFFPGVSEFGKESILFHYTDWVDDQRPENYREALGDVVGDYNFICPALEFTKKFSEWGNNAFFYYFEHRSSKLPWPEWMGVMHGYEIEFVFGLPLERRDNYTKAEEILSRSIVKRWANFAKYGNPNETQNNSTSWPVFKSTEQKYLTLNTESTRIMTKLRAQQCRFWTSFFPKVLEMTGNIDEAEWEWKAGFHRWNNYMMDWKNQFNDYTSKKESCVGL
Method: Three series of tacrine-squaramide homodimers were tested for their inhibitory potential against human AChE (hAChE) and human BChE (hBChE) enzymes using modified spectrophotometric method of Ellman et al.. THA, 6-Cl-THA and 7-MEOTA were used as reference compounds.
as §1, §2, §3

in vitro = details: human
Method: The human origin cell line HepG2 (ATCC, Mannassas, VA, USA) isolated from liver hepatocellular carcinoma was used to evaluate cytotoxicity of tested compounds. The cells were cultivated in Dublecco’s modified Eagle’s medium (DMEM; Biosera, Nuaille, France) supplemented with 10% fetal bovine serum (Biosera) and 1% penicillin-streptomycin antibiotic solution (Sigma-Aldrich, St. Louis, MO, USA), incubated at 37 °C in a CO2 incubator (Binder CO2 incubator BC 160, Tuttlingen, Germany) and routinely passaged by trypsinization at 75–85% confluence.
The final concentration of DMSO was less than 0.25% per well.
After 24-h incubation, the medium containing serially diluted substances was aspirated from each well and replaced by 100 µL of fresh medium containing MTT (0.5 mg/mL). Plates were subsequently incubated at 37 °C in CO2 incubator for 45 min. The medium containing MTT was then aspirated and formazan dissolved in 100 μL of DMSO. The optical density of each well was measured using Synergy 2 Multi-Mode Microplate Reader (BioTek Instruments, Inc., Winooski, VT, USA) at 570 nm. The cell viability was expressed as the percentage of untreated control. Each experiment was performed in triplicate and repeated three independent times.
The IC50 values were expressed as a mean ± standard error of the mean (SEM).

[3] = for Pe: PAMPA, PBS pH 7.4; for BBB permeation prediction in words: PAMPA-BBB; for CNS (+/−) predicted BBB permeation: class from Pe
Source text: An important feature for drugs targeting the brain is their ability to cross the BBB. The parallel artificial membrane permeability assay (PAMPA) is a high-throughput screening tool applicable for prediction of passive transport across BBB [57]. […] These include mainly (i) the different composition of the human phospholipid bilayer may cause deviation in predicted permeability, (ii) omitting the absorption of compounds that are actively transported by influx transporters and pumped-out by various efflux mechanisms with the glycoprotein P at the forefront or (iii) transport through the paracellular route which is mostly exploited by small […] molecules. Even considering these drawbacks, PAMPA-BBB is conceived as very simple but powerful tool for BBB prediction.
PAMPA (the parallel artificial membrane permeability assay) is a high-throughput screening tool applicable for prediction of the passive transport of potential drugs across the blood-brain barrier (BBB). In this study, it has been used as a non-cell-based in vitro assay carried out in a coated 96-well membrane filter. The filter membrane of the donor plate was coated with PBL (Polar Brain Lipid, Avanti, USA) in dodecane (4 µl of 20 mg/mL PBL in dodecane) and the acceptor well was filled with 300 µl of phosphate buffer saline, (PBS pH 7.4; VA). The tested compounds were dissolved first in DMSO and then diluted with PBS pH 7.4 to reach the final concentrations 50–500 µM in the donor well. […] In principle, test compound diffuse from the donor well through the polar brain lipid membrane (area = 0.28 cm^2) to the acceptor well. The concentration of the tested compound in both donor and the acceptor wells were assessed after 3, 4, 5 and 6 h of incubation in quadruplicate using the UV plate reader Synergy HT (Biotek, USA) at the maximum absorption wavelength of each compound (n = 3). Besides that, the solution of theoretical compound concentration, simulating the equilibrium state, established if the membrane was ideally permeable was prepared and assessed as well.

hBChE = hBChE (Homo sapiens, UniProt P06276); experiment: Kinetic study of BChE inhibition; type: biochemical
hBChE, sequence (P06276 29-602): as above
Method: (§4) Kinetic study was performed in order to describe the interactions of the compounds 4b and 3e with hAChE and hBChE, respectively. Inhibition kinetics were elucidated from velocity curves that were measured at several concentrations of the corresponding substrate (AChE—acetylthiocholine, BChE—butyrylthiocholine) and tested compounds. The type of enzyme inhibition and corresponding kinetic parameters (Ki and Ki’) were determined by nonlinear regression analysis. Results for each type model of inhibition (competitive, non-competitive, uncompetitive and mixed) were compared by sum-of-squares F-test. […].
(§5) The kinetic study of AChE and BChE was performed by using the above-mentioned modified Ellman’s method. The values of Vmax and Km of the Michaelis-Menten kinetics as well as the values of Ki and Ki’ were calculated by nonlinear regression from the substrate velocity curves. Linear regression was used for calculation of Lineweaver-Burk plots. All calculations were performed using GraphPad Prism software version 6.07 for Windows (San Diego, CA, USA).

hAChE = target: T2, hAChE (Homo sapiens, UniProt P22303); experiment: Kinetic study of AChE inhibition; type: biochemical
T2 construct: made in house
T2 sequence (P22303 32-614): as the sequence (P22303 32-614) above
Method: as §4, §5

[4] = nonlinear regression, sum-of-squares F-test, p < 0.05
[5] = mean of at least three experiments, read-out: IC50 hBChE

Row | SMILES | IC50 [1] [nM] | times more potent than reference (hAChE) [1] [times] | SI (selectivity index for hAChE) [1] | IC50 [2] [nM] | IC50 at 24 h (in vitro) [nM] | Pe [3] [×10⁻⁶ cm/s] | BBB permeation prediction in words [3] | CNS (+/−) predicted BBB permeation [3] | Ki' (hBChE; binding to enzyme-substrate complex, substrate butyrylthiocholine) [nM] | Ki (hBChE; binding to free enzyme, substrate butyrylthiocholine) [nM] | type of inhibition (hBChE; [4]) | times less active than bis(7)-tacrine (hAChE) ([1]; IC50 comparison with bis(7)-tacrine) [times] | Ki' (hAChE; binding to enzyme-substrate complex, substrate acetylthiocholine) [nM] | Ki (hAChE; binding to free enzyme, substrate acetylthiocholine) [nM] | type of inhibition (hAChE; [4]) | IC50 [2, 5] [nM]
1 | O=c1c(NCCNc2c3c(nc4ccccc24)CCCC3)c(NCCNc2c3c(nc4ccccc24)CCCC3)c1=O [Compound 3a, Bis({2-[(1,2,3,4-tetrahydroacridin-9-yl)amino]ethyl}amino)cyclobut-3-ene-1,2-dione] | 3.8 | 84 | 16 | 62 | > 256000 | 1.1 | cannot presumably cross the BBB | CNS − (CNS −: low BBB permeation predicted with Pe (10^−6 cm·s^−1) < 2.0) |  |  |  |  |  |  |  | 
2 | O=c1c(NCCCCCCNc2c3c(nc4ccccc24)CCCC3)c(NCCCCCCNc2c3c(nc4ccccc24)CCCC3)c1=O [Compound 3e, Bis({6-[(1,2,3,4-tetrahydroacridin-9-yl)amino]hexyl}amino)cyclobut-3-ene-1,2-dione] | 13 |  | 1.6 | 21 | 76000 | 2.6 | uncertain BBB permeation | CNS +/− (CNS +/−: BBB permeation uncertain with Pe (10^−6 cm·s^−1) from 4.0 to 2.0) | 100 ± 28 | 8.1 ± 1.9 | mixed type of inhibition |  |  |  |  | 
3 | O=c1c(NCCCNc2c3c(nc4cc(Cl)ccc24)CCCC3)c(NCCCNc2c3c(nc4cc(Cl)ccc24)CCCC3)c1=O [Compound 4b, Bis({3-[(6-chloro-1,2,3,4-tetrahydroacridin-9-yl)amino]propyl}amino)cyclobut-3-ene-1,2-dione] | 2 |  | 55 | 110 | > 64000 | 2.5 | uncertain BBB permeation | CNS +/− (CNS +/−: BBB permeation uncertain with Pe (10^−6 cm·s^−1) from 4.0 to 2.0) |  |  |  | 2.5 | 0.5 ± 0.2 | 0.4 ± 0.2 | mixed type of inhibition | 
4 | O=c1c(NCCCCCCNc2c3c(nc4cc(Cl)ccc24)CCCC3)c(NCCCCCCNc2c3c(nc4cc(Cl)ccc24)CCCC3)c1=O [Compound 4e, Bis({6-[(6-chloro-1,2,3,4-tetrahydroacridin-9-yl)amino]hexyl}amino)cyclobut-3-ene-1,2-dione] | 3.2 |  | 170 |  | > 64000 | 17 | high probability to cross the BBB | CNS + (CNS +: high BBB permeation predicted with Pe (10^−6 cm·s^−1) > 4.0) |  |  |  |  |  |  |  | 540
5 | COc1ccc2nc3c(c(NCCNc4c(NCCNc5c6c(nc7ccc(OC)cc57)CCCC6)c(=O)c4=O)c2c1)CCCC3 [Compound 5a, Bis({2-[(7-methoxy-1,2,3,4-tetrahydroacridin-9-yl)amino]ethyl}amino)cyclobut-3-ene-1,2-dione] | 170 |  | 0.7 |  | > 256000 | 2.3 | uncertain BBB permeation | CNS +/− (CNS +/−: BBB permeation uncertain with Pe (10^−6 cm·s^−1) from 4.0 to 2.0) |  |  |  |  |  |  |  | 130
6 | COc1ccc2nc3c(c(NCCCCCNc4c(NCCCCCNc5c6c(nc7ccc(OC)cc57)CCCC6)c(=O)c4=O)c2c1)CCCC3 [Compound 5d, Bis({5-[(7-methoxy-1,2,3,4-tetrahydroacridin-9-yl)amino]pentyl}amino)cyclobut-3-ene-1,2-dione] | 120 | 83 | 5.7 | 680 | 98000 | 1.3 | cannot presumably cross the BBB | CNS − (CNS −: low BBB permeation predicted with Pe (10^−6 cm·s^−1) < 2.0) |  |  |  |  |  |  |  | 
7 | COc1ccc2nc3c(c(NCCCCCCCNc4c(NCCCCCCCNc5c6c(nc7ccc(OC)cc57)CCCC6)c(=O)c4=O)c2c1)CCCC3 [Compound 5f, Bis({7-[(7-methoxy-1,2,3,4-tetrahydroacridin-9-yl)amino]heptyl}amino)cyclobut-3-ene-1,2-dione] | 170 |  | 7.6 |  | 9000 |  |  |  |  |  |  |  |  |  |  | 1300
8 | COc1ccc2nc3c(c(NCCCCCCCCNc4c(NCCCCCCCCNc5c6c(nc7ccc(OC)cc57)CCCC6)c(=O)c4=O)c2c1)CCCC3 [Compound 5g, Bis({8-[(7-methoxy-1,2,3,4-tetrahydroacridin-9-yl)amino]octyl}amino)cyclobut-3-ene-1,2-dione] | 490 |  | 5.9 |  | 3500 |  |  |  |  |  |  |  |  |  |  | 2900
